Test results published in patent US7579353B2, “Pyridinone derivatives against malaria” (Glaxo Group Limited, priority 2005, dated 2009).
≈ marks a conversion by molar mass, not a printed value. Read-outs that look alike come from different tables or passages of the source.

What was measured:
[1] = Compound solubility determination (gross and equilibrium solubility; FaSSIF, FeSSIF, pH 7.4 PBS, pH 1.0 0.1N HCl, pH 4.5 sodium citrate); assay type: physicochemical; settings: thermodynamic from solid
Protocol: Compound Solubility Determination
An amount of 3 mg solid compound with LC-MS purity ≧95% was required. This amount was split between 3 different glass vials (1.8 ml volume each), placing 1 mg compound into each one.
Organic solvents of HPLC grade were used. Ultra pure water (Milli-Q grade) was used. Buffers were prepared with ultra pure water and filtered using 0.45μ cameo filters. The compositions of each solvent employed in this assay are described below (part III).
2. Determination of Equilibrium Solubility (Assuming Chemical Stability in the Desired Solvent is not a Problem).
For each of the three vial samples prepared as described above, in which the amount of compound was totally dissolved, the following procedure was subsequently carried out: • a) A small amount (approx. 0.1 mg) of additional solid compound was added to the vial to maintain an excess of the compound in the mixture in the form of undissolved solid. • b) The samples were magnetically stirred for 24 hr. If required, additional solid compound (0.1 mg) was added to maintain excess of it and then the samples were stirred again. • c) Then the samples were filtered (Millipore Milex filters nylon 0.2 um) and three aliquots were taken (one from each of the three vials) and analysed by LC-MS. • d) The pH of the final solution in each sample was measured with a pH-meter (WTW pH330i and a pH-electrode Sentix 41).
3. LC-MS Assay for Analytical Quantification
All filtered aliquots were analysed by LC-MS. The analysis was carried out with a Luna 5 μC18 (2) column 4.6×150 mm, using a HP1100 HPLC instrument interfaced with a Waters ZMD-2000 MS spectrometer. The concentration of the final sample as prepared above was calculated from that of a reference calibration curve obtained from serial dilutions of a 2 mM solution of the compound under investigation in DMSO (Aldrich cat. ref.: 27685-5) stock solution.
The analysis of all LC-MS data was performed with MassLynx 3.4 software. Statistical and graphic analysis of data was performed using Microsoft Excel. The concentration (uM) and solubility (ug/ml) for each compound was calculated using the peak areas from the sample and those from the calibration curve.
A) FaSSIF is a solvent which simulates the Fasted State of the Intestinal Fluid. (FaSSIF: Fasted State Simulated Intestinal Fluid).
B) FeSSIF is a solvent which simulates the Fed State of the Intestinal Fluid. (FeSSIF: Fed State Simulated Intestinal Fluid).
C) Solubility at pH 7.4 was determined in phosphate buffered saline (PBS) (Fluka cat. ref: 79383)
D) Solubility at pH 1.0 was determined in 0.1N HCl solution (Scharlau AL0744010C)
E) Solubility at pH 4.5 was determined in sodium citrate 0.5M solution. (Aldrich 25, 127-5)

Plasmodium falciparum = assay: In vitro anti-malarial activity against Plasmodium falciparum, IC50 assay / [3H]-hypoxanthine incorporation assay; assay type: cell-based; settings: Erythrocyte, parasitized red blood cells, 48 hours
Protocol: In Vitro Anti-malarial Activity Against Plasmodium falciparum
IC50 Assay/[^3H]-Hypoxanthine Assay
Plasmodium falciparum strains.
The culture medium comprised RPMI 1640 with 25 mM HEPES, sodium bicarbonate and glutamine (GIBCO™ cat. ref.: 52400), supplemented with 10% of pooled human sera AB (Irvine Scientific, cat. ref.: 5009) and HT supplement (0.15 mM hypoxanthine and 24 μM thymidine), (GIBCO™ cat. ref.: 41065). Human sera were decomplemented 30 min. at 56° C., aliquoted and stored frozen at −20° C. until use in this culture medium.
Red blood cells O+ stock suspensions were prepared from whole blood bags coming from incomplete blood donation, provided by the Spanish Red Cross (<25 days after sampling). This “whole blood” was aliquoted and stored at 4° C.
To prepare red blood cells for the assay, the whole blood was centrifuged and washed 3 times with RPMI without serum. The upper phase, containing white blood cells was removed. The washed red blood cells were kept as a 50% suspension in complete medium. The prepared cells were stored at 4° C. and were employed in the assay at any time up to 4 days after preparation.
Test compounds were dissolved at 2 mg/ml in 100% DMSO on the day of the assay. If necessary, complete dissolution was achieved by gentle heating (the mixture was heated at a temperature <37° C.) and sonication (sonication bath).
For IC50 determinations, 10 serial 2-fold dilutions were prepared in complete medium in the presence of a constant amount of DMSO.
Plasmodium falciparum strains were maintained in complete medium at an hematocrit of 5% in continuous culture using a method adapted from Trager and Jensen (1, 2).
The parasitemia was calculated by counting the percentage of parasitized erythrocytes by optical microscopy. Thin films of blood were made every day from each culture flask, fixed with methanol and stained for 10 min. in Giemsa (Merck, cat ref.: 1.09204) at 10% in buffered water pH 7.2. The glass slides were observed and counted with an optical microscope (Nikon, Eclipse E200) equipped with a 100× immersion oil objective.
The culture was maintained at an hematocrit of 5%, with a daily change of medium and was diluted when parasitemia had reached about 5%.
[^3H] Hypoxanthine incorporation assay was conducted using a method adapted from Desjardins et al. (3). The assays were performed in 96 wells flat bottom microplates.
1. Serial dilutions of the test compounds (50 μl of a 5× solution/well) were deposited in duplicate. Compounds of the invention were tested in this assay. Chloroquine and Atovaquone were used as control compounds for each assay.
3. [^3H]-Hypoxanthine (Amersham Biosciences, cat. ref.: TRK74) was added extemporaneously to the inoculum suspension at a concentration of 1 μCi/ml (equating to […]). 200 μl of the resulting suspension was distributed into each well (other than the control well H12 described below) leading to a final volume of 250 μl per well, at 2% of hematocrit and 0.5% of parasitemia/well.
4. In each plate, 2 columns were reserved for control wells: • Column 11: Positive control wells: PRBCs with 0.2% DMSO—(i) to determine DMSO solvent effect on parasite growth (at a final concentration of 0.2%) and (ii) to compare with cultures treated with test compounds. • Column 12 (comprising wells A12-H12): • A12-D12—Background value wells: Uninfected RBCs—blank control to obtain the background reading from RBCs without parasites. • E12-G12—Solvent effect wells: PRBCs without DMSO—to determine DMSO solvent effect on PRBCs by comparing these wells with column 11 wells. • H12-Non-radioactive well: PRBCs with cold hypoxanthine—(i) to carry out a thin blood film to determine parasitemia value after incubation by microscopy and (ii) to ensure that the parasites have grown properly during the assay. (200 μl of inoculum suspension was prepared as described above (Items 2 and 3) but with non-tritiated hypoxanthine instead of [3H]-hypoxanthine, then added to this well to a final volume of 250 μl). […]

[2] = 0.1N HCl solution, simulated gastric fluid, pH 1 (HCl), read-out: Solubility at pH 1 (HCl)
[3] = FaSSIF (fasted state simulated intestinal fluid), fassif, read-out: Solubility in FaSSIF
[4] = phosphate buffered saline (PBS), aqueous buffer, pH 7.4 (PBS), read-out: Solubility at pH 7.4 (PBS)
[5] = sodium citrate 0.5M solution, aqueous buffer, pH 4.5 (Na citrate), read-out: Solubility at pH 4.5 (Na citrate)

| SMILES | solubility at 24 h ([1]; aqueous buffer, pH 4.5 (Na citrate), read-out: Solubility at pH 4.5 (Na citrate)) | solubility at 24 h ([1]; aqueous buffer, pH 7.4 (PBS), read-out: Solubility at pH 7.4 (PBS)) | solubility at 24 h ([1]; fassif, read-out: Solubility in FaSSIF) | solubility at 24 h ([1]; simulated gastric fluid, pH 1 (HCl), read-out: Solubility at pH 1 (HCl)) | IC50 (Plasmodium falciparum) | solubility at 24 h [1, 2] | solubility at 24 h [1, 3] | solubility at 24 h [1, 4] | solubility at 24 h [1, 5] | solubility at 24 h ([1]; FeSSIF (fed state simulated intestinal fluid), fessif, read-out: Solubility in FeSSIF) |
| --- | --- | --- | --- | --- | --- | --- | --- | --- | --- | --- |
| Cc1[nH]c(C)c(-c2ccc(OCc3ccc(C(F)(F)F)cc3)nc2)c(=O)c1Cl [Example 10, 5-Chloro-2,6-dimethyl-6′-{[4-(trifluoromethyl)benzyl]oxy}-3,3′-bipyridin-4(1H)-one] | < 1 µg/mL | < 1 µg/mL | < 1 µg/mL | 5 to 10 µg/mL (≈ 12.2 to 24.5 µM) | < 0.125 µg/mL |  |  |  |  |  |
| Cc1[nH]c(C)c(-c2ccc(-c3ccc(C(F)(F)F)cc3)nc2)c(=O)c1Br [Example 16, 5-Bromo-2,6-dimethyl-6′-{4-[trifluoromethyl]phenyl}-3,3′-bipyridin-4(1H)-one] |  |  |  |  | < 0.125 µg/mL | 10 to 50 µg/mL (≈ 23.6 to 118 µM) | < 1 µg/mL | < 1 µg/mL | < 1 µg/mL |  |
| Cc1[nH]c(C)c(-c2ccc(-c3cccc(C(F)(F)F)c3)nc2)c(=O)c1Br [Example 17, 5-Bromo-2,6-dimethyl-6′-{3-[trifluoromethyl]phenyl}-3,3′-bipyridin-4(1H)-one] |  |  |  |  | < 0.125 µg/mL | ≥ 50 µg/mL | 1 to 5 µg/mL (≈ 2.36 to 11.8 µM) | < 1 µg/mL | < 1 µg/mL |  |
| Cc1[nH]c(C)c(-c2ccc(-c3ccccc3C(F)(F)F)nc2)c(=O)c1Br [Example 18, 5-Bromo-2,6-dimethyl-6′-{2-[trifluoromethyl]phenyl}-3,3′-bipyridin-4(1H)-one] |  |  |  |  | < 0.125 µg/mL | ≥ 50 µg/mL | 10 to 50 µg/mL (≈ 23.6 to 118 µM) | 10 to 50 µg/mL (≈ 23.6 to 118 µM) | 10 to 50 µg/mL (≈ 23.6 to 118 µM) |  |
| Cc1[nH]c(C)c(-c2ccc(-c3ccc(Cl)cc3)nc2)c(=O)c1Br [Example 19, 5-Bromo-6′-(4-chlorophenyl)-2,6-dimethyl-3,3′-bipyridin-4(1H)-one] |  |  |  |  | < 0.125 µg/mL | 10 to 50 µg/mL (≈ 25.7 to 128 µM) | 1 to 5 µg/mL (≈ 2.57 to 12.8 µM) | 1 to 5 µg/mL (≈ 2.57 to 12.8 µM) | 1 to 5 µg/mL (≈ 2.57 to 12.8 µM) | 5 to 10 µg/mL (≈ 12.8 to 25.7 µM) |
| Cc1[nH]c(C)c(-c2ccc(-c3cccc(Cl)c3)nc2)c(=O)c1Br [Example 20, 5-Bromo-6′-(3-chlorophenyl)-2,6-dimethyl-3,3′-bipyridin-4(1H)-one] |  |  |  |  | < 0.125 µg/mL | ≥ 50 µg/mL | < 1 µg/mL | < 1 µg/mL | < 1 µg/mL |  |
| Cc1[nH]c(C)c(-c2ccc(-c3ccccc3Cl)nc2)c(=O)c1Br [Example 21, 5-Bromo-6′-(2-chlorophenyl)-2,6-dimethyl-3,3′-bipyridin-4(1H)-one] |  |  |  |  | < 0.125 µg/mL | ≥ 50 µg/mL | 5 to 10 µg/mL (≈ 12.8 to 25.7 µM) | 1 to 5 µg/mL (≈ 2.57 to 12.8 µM) | 5 to 10 µg/mL (≈ 12.8 to 25.7 µM) |  |
| Cc1[nH]c(C)c(-c2ccc(-c3ccc(F)cc3)nc2)c(=O)c1Br [Example 22, 5-Bromo-6′-(4-fluorophenyl)-2,6-dimethyl-3,3′-bipyridin-4(1H)-one] |  |  |  |  | < 0.125 µg/mL | ≥ 50 µg/mL | 1 to 5 µg/mL (≈ 2.68 to 13.4 µM) | 1 to 5 µg/mL (≈ 2.68 to 13.4 µM) | 1 to 5 µg/mL (≈ 2.68 to 13.4 µM) |  |
| Cc1[nH]c(C)c(-c2ccc(-c3ccccc3F)nc2)c(=O)c1Br [Example 23, 5-Bromo-6′-(2-fluorophenyl)-2,6-dimethyl-3,3′-bipyridin-4(1H)-one] |  |  |  |  | < 0.125 µg/mL | ≥ 50 µg/mL | 1 to 5 µg/mL (≈ 2.68 to 13.4 µM) | 1 to 5 µg/mL (≈ 2.68 to 13.4 µM) | 5 to 10 µg/mL (≈ 13.4 to 26.8 µM) |  |
| Cc1[nH]c(C)c(-c2ccc(-c3ccc(C(F)(F)F)cc3C(F)(F)F)nc2)c(=O)c1Br [Example 24, 5-Bromo-2,6-dimethyl-6′-{2,4-bis[trifluoromethyl]phenyl}-3,3′-bipyridin-4(1H)-one] |  |  |  |  | < 0.125 µg/mL | 5 to 10 µg/mL (≈ 10.2 to 20.4 µM) | < 1 µg/mL | < 1 µg/mL | < 1 µg/mL |  |
| Cc1[nH]c(C)c(-c2ccc(-c3cc(C(F)(F)F)cc(C(F)(F)F)c3)nc2)c(=O)c1Br [Example 25, 5-Bromo-2,6-dimethyl-6′-{3,5-bis[trifluoromethyl]phenyl}-3,3′-bipyridin-4(1H)-one] |  |  |  |  | < 0.125 µg/mL | 1 to 5 µg/mL (≈ 2.04 to 10.2 µM) | < 1 µg/mL | < 1 µg/mL | < 1 µg/mL |  |
| CCCCc1ccc(-c2ccc(-c3c(C)[nH]c(C)c(Br)c3=O)cn2)cc1 [Example 26, 5-Bromo-6′-(4-n-butylphenyl)-2,6-dimethyl-3,3′-bipyridin-4(1H)-one] |  |  |  |  | < 0.125 µg/mL | 10 to 50 µg/mL (≈ 24.3 to 122 µM) | 10 to 50 µg/mL (≈ 24.3 to 122 µM) | < 1 µg/mL | < 1 µg/mL |  |
